Measured values from paper PMC11460631, “Inhibition of transient receptor potential vanilloid 3 channels by antimalarial hydroxychloroquine alleviates TRPV3-dependent dermatitis” (The Journal of Biological Chemistry, 2024).

Columns and labels:
TRPV3 [1] = target: T1, TRPV3 (Homo sapiens, UniProt Q8NET8); assay: Single-channel recordings of TRPV3 in the inside-out configuration; assay type: cell-based; conditions: 1 mM 2-APB alone, −80 mV
T1 construct: YFP or GFP; expressed in transfected cells; host or cells: HEK293T
T1 sequence (Q8NET8 1-790): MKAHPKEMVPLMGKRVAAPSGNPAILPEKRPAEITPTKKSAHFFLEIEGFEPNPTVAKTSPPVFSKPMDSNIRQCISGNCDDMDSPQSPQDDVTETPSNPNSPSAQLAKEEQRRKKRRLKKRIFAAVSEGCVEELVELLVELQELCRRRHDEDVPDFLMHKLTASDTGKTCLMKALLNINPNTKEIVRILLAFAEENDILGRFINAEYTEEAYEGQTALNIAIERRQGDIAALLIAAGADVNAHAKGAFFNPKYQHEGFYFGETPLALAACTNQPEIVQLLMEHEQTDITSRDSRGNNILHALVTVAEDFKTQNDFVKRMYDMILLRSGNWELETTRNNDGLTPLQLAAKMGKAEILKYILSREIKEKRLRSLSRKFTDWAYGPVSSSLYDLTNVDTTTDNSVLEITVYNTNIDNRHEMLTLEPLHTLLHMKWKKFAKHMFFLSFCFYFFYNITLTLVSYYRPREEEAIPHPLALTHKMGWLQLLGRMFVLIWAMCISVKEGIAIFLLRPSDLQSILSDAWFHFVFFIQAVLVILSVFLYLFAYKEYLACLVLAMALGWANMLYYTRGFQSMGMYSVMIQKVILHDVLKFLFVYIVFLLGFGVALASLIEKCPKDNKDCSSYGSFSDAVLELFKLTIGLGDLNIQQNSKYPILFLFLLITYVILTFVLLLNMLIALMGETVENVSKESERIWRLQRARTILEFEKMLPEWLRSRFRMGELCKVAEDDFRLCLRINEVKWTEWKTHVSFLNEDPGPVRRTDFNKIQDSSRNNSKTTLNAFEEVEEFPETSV
Description: (§1) HEK293T cells are cultured using Dulbecco's modified Eagle's medium containing 10% fetal bovine serum and 1% penicillin-streptomycin in a cell incubator with 5% CO2 at 37 °C. Plasmids of murine TRPV1, TRPV4, TRPM8, and human TRPV3, TRPA1 are labeled with YFP or GFP as indicators for subsequent electrophysiological recordings. Complementary DNA constructs of ion channels were transiently transfected with Lipofectamine 3000 (Invitrogen). And 12 to 18 h after transient transfection, electrophysiological recordings were performed.
(§2) Patch-clamp recordings were carried out with a HEKA EPC10 amplifier controlled by PatchMaster software (HEKA; https://www.heka.com/products/products_main.html#soft_pm) ([36]). Patch pipettes were prepared from borosilicate glass and fire-polished to the resistance of 3 to 8 MΩ by P-97 puller for whole-cell recordings. For single-channel recordings, patch pipettes were fire-polished to a higher resistance of 6 to 10 MΩ. Both bath solution and pipette solution contained 130 mM NaCl, 10 mM glucose, 0.2 mM EDTA, and 3 mM Hepes and were adjusted to pH 7.2 to 7.4 with NaOH. Whole-cell recordings and single-channel recordings were performed at ± 80 mV. The current was sampled at 10 kHz and filtered at 2.9 kHz. All recordings were performed at room temperature (25 °C). A gravity-driven system (RSC-200, Bio-Logic) with freely rotated perfusion tubes was used for the perfusion of ligands. Bath and ligand solutions were delivered through separate tubes to minimize the mixing of solutions. Patch pipette holding cells were placed in front of the perfusion tube outlet for perfusion. Igor Pro versions 5.05 and 9.05 (WaveMetrics; https://www.wavemetrics.com/products/igorpro) were used to analyze the data.

TRPV3 [2] = target: T1, TRPV3; assay: Whole-cell patch-clamp recordings of TRPV3 currents in transfected HEK293T cells; assay type: cell-based; conditions: 1 mM agonist, whole-cell, n = 5 cells
Description: as §1
as §2, with “perfusion.” for “perfusion. Igor Pro versions 5.05 and 9.05 (WaveMetrics; https://www.wavemetrics.com/products/igorpro) were used to analyze the data.”
All data from whole-cell recordings were analyzed in Igor Pro (WaveMetrics). IC50 values were determined by fitting the Hill equation to concentration-response relationships. Data are shown as mean ± SEM. Statistical significance between two groups was conducted with an unpaired two-tailed t test, and statistical significance among multiple groups was conducted with one-way ANOVA using Dunnett’s multiple comparisons test or Tukey's post hoc test. Differences were regarded as statistically significant with ∗, p < 0.05; ∗∗, p < 0.01; ∗∗∗, p < 0.001; ∗∗∗∗, and p < 0.0001; N.S., no significance.

TRPV3 [3] = target: T1, TRPV3; assay: Calcium imaging (Fluo-4/AM) of TRPV3-expressing HEK293T cells; assay type: cell-based
Description: as §1
Calcium imaging assays were performed as described previously ([37]). Transiently transfected HEK293 cells seeded on 25 mm coverslips were washed twice with an extracellular solution containing 140 mM NaCl, 5 mM KCl, 2 mM MgCl2, 2 mM CaCl2, 10 mM glucose, and 10 mM Hepes (pH 7.4), followed by incubation in 2 ml of extracellular solution supplemented with 2 μM Fluo-4/AM as a Molecular Probes at room temperature for 60 min. Fluorescence images of HEK293T cells were acquired with a Nikon Eclipse Ti2 microscope with an optiMOS charge-coupled device camera controlled by the Ocular Software ([…]; https://www.photometrics.com/products/ocular).

[4] = tested on: TNF-α, IL-6, IgE, IL-4 in mouse dorsal skin tissues; assay: Carvacrol-induced AD-like mouse model: inflammatory factors by ELISA; assay type: in vivo
Description: (§3) We therefore generated a carvacrol-induced AD mouse model to test the effect of HCQ.
(§4) To generate an AD-like mice model, 2% carvacrol (dissolved in 30% ethanol solution) was topically smeared onto the mice dorsum 1 day after hair removal with a depilatory cream (Vetin Depilatory Cream). Mice received a topical administration of an equal volume (200 μl) of 2% carvacrol or in the presence of 2 mg/ml HCQ. […] After the application of carvacrol for 5 days, the external appearance of mice was photographed and then sampled. The external appearance was graded based on three aspects: thickness, erythema/bleeding, and dryness/desquamation, with severity assessed on a score of 0 to 4. The degree of thickness was measured by the thickness of the skin in H&E staining. Skin tissues were either fixed in 4% paraformaldehyde or placed in PBS buffer containing 1% protease inhibitor, facilitating subsequent steps of paraffin embedding or ELISA experiments.
Animal skin tissues were placed in PBS buffer containing 1% protease inhibitors, then homogenized, and centrifuged for supernatants. Cytokine concentrations of supernatants (IL-4, IL-6, TNF-α, and IgE) were measured using ELISA kits (Tsingke) according to the manufacturer's instructions. The absorption at 450 nm was measured by a microplate reader (Thermo Multiskan MK3).

C57BL/6J male mice = assay: Carvacrol-induced AD-like mouse model: skin appearance scores and H&E epidermal thickness; assay type: in vivo; conditions: score of 0 to 4, topical, 5 days; for erythema score: 2% carvacrol alone or with HCQ 2 mg/ml or DXM 1 mg/ml
Description: as §3
To investigate the effect of HCQ on carvacrol-induced dermatitis in animals, C57BL/6J male mice (aged 6 weeks) were obtained from the Animal Experimental Center of Hangzhou Medical College (Hangzhou, Zhejiang Province). Mice were housed and maintained in an environment with a 12-h light/dark cycle and a controlled temperature of 22.0 ± 2.0 °C. Food and water were accessible ad libitum. All the animal procedures were approved by the Institutional Animal Care & Use Committee of Zhejiang Center of Laboratory Animals (ZJCLA).
as §4
Mice were sacrificed 24 h after the last dose of treatment. Mouse dorsal skin was removed with scissors and forceps before being fixed with 4% paraformaldehyde. Paraffin-embedded tissues were sectioned and stained with H&E. Pictures of stained sections were acquired with a Nikon Eclipse Ti-S microscope with a charge-coupled device camera (DS-Ri2, Nikon).

[5] = DXM 1 mg/ml topical with 2% carvacrol

Structure (SMILES): NCCOB(c1ccccc1)c1ccccc1 [2-APB, 2-aminoethoxydiphenylborate]
- TRPV3 channel open probability (Po) (TRPV3 [1]): 0.89 ± 0.06
- single-channel conductance (TRPV3 [1]): 90.69 ± 2.67 pS
- wash-off time constant of TRPV3 current (TRPV3 [2]): 4.05 ± 0.73 s
- calcium influx, area under the curve (AUC) of 2-APB activation (TRPV3 [3]; 1 mM 2-APB alone): 22.92 ± 1.44

Structure (SMILES): C[C@@H]1C[C@H]2[C@@H]3CCC4=CC(=O)C=C[C@]4(C)[C@@]3(F)[C@@H](O)C[C@]2(C)[C@@]1(O)C(=O)CO [DXM, dexamethasone]
- effect on IL-6 and TNF-α [4, 5]: no significant effect
- effect on serum IgE levels [4, 5]: reduces
- IL-4 levels compared to the model group ([4]; mouse tissues, HCQ 2 mg/ml or DXM 1 mg/ml topical with 2% carvacrol): effectively reduced
- erythema score (C57BL/6J male mice): 2.83 ± 0.17

Structure (SMILES): Cc1ccc(C(C)C)cc1O [carvacrol]
- wash-off time constant of TRPV3 current (TRPV3 [2]): 1.43 ± 0.38 s
- dry desquamation score (C57BL/6J male mice; 2% carvacrol alone or with HCQ 2 mg/ml): 3.17 ± 0.31
- erythema score (C57BL/6J male mice): 3.67 ± 0.21

Structure (SMILES): C[C@H](CCC(=O)O)C[C@H](C)C[C@H](C)C(=O)/C=C(\O)[C@H](C)C[C@H](C)C/C=C/[C@@H](C)[C@@H](O)[C@@H](C)[C@@H](O)C[C@@H]1CC[C@@](C)([C@H]2CC[C@@](C)([C@@H](C)O)O2)O1 [ionomycin]
- calcium influx, area under the curve (AUC), positive control (TRPV3 [3]; 10 μM ionomycin): 41.59 ± 1.50
